Data from publication PMC6839174, “Targeting the Formyl Peptide Receptor type 1 to prevent the adhesion of ovarian cancer cells onto mesothelium and subsequent invasion” (Journal of Experimental & Clinical Cancer Research : CR, 2019).
Non-standard residues stand in square brackets, D forms with d. Aib = CC(C)(N)C(=O)O

Legend:
[1] = test system: primary EOC cells; assay: HPMC invasion by primary EOC cells monitored in real time; type: cell-based, human; conditions: 10 nM RI-3; xCELLigence, slopes 18–24 h; quadruplicate representative of 3 replicates
Description: HPMCs (5 × 10^3 cells/well) suspended in growth medium, were seeded in E-16-well plates and allow to adhere for 18–20 h until they form a confluent monolayer, prior to seeding EOC cells (2 × 10^4 cells/well) in growth medium plus/minus 10 nM RI-3. When HPMCs are challenged with invading cells, there is a drop in electrical resistance within 2–4 h which is monitored in real-time as the Cell Index changes due to the rupture of mesothelium. The experiments were performed three times in quadruplicate.

[2] = test system: FPR1; conditions: FPR1 overexpressing rat basophilic leukaemia RBL-2H3/ETFR cells; stated also as conclusion for primary EOC cells; ref [38]; cited from earlier work
Source text: In order to obtain primary cultures of EOC cells, representative fragments of tissue samples were fragmented and cells recovered, as described in the Methods. By enzymatic digestion of a HGSC tissue sample (patient #5), a primary cell culture expressing high levels of both uPAR and FPR1 on cell surface as shown by IHC, was obtained (Figs. 4 and 5a). Subsequent sub-cloning of isolated cell clusters (Fig. 5b) followed by five passages allowed us to obtain an adherent, homogeneous, CD326 positive cell population. These EOC cells express a considerable amount of both uPAR and FPR1 as shown by West ...

[3] = test system: SKOV-3 cells; assay: Adhesion of SKOV-3 cells onto extracellular matrix proteins (24-well plates, cell counting); type: cell-based, Human
Description: Adhesion assays were performed using 24 multi-well plates coated with 1% BSA, 5 μg mL vitronectin (Vn), 5 μg mL fibronectin (Fn), 5 μg mL laminin (Lm) or 15 μg mL collagen (Coll) diluted in serum-free medium. Sub-confluent cells were harvested by a mild trypsinization, incubated with 10% FBS / DMEM for 1 h at 37 °C, 5% CO2, acid treated with a buffer containing 50 mM glycin-HC1, 0.1 M NaCl, pH 3 for 4 min at 22 °C, to remove receptor-bound ligands, and counted. Viable cells (2 × 10^5 cells per well) were plated in serum-free medium, in the absence or presence of 2 μg/mL R3 mAb recognizing the DI uPAR domain, 2 μg/mL399 anti-uPAR (American Diagnostica), 2 μg/mL anti-uPAR84-95 (PRIMM), 2 μg/mL anti-α-tubulin (Cell Signaling) Abs or 10 nM RI-3, and allowed to adhere for 2 h at 37 °C, 5% CO2. […] At the end of the assay, adherent cells were removed with 0.05% trypsin, and counted. The number of adherent cells was expressed as a percentage of the basal cell adhesion (CTRL). The experiments were performed at least three times in triplicate.

For “Ac-[dY][dR][Aib][dR]-NH2 [RI-3, retro-inverso peptide, uPAR/FPR1 antagonist]”, the “reduction of capability of EOC cells to cross the mesothelial cell monolayer” value [1] is listed as “about 80%”, the “FPR1 binding and blockade of internalization and function” value [2] is listed as “binds to FPR1 blocking its internalization and function” and the “basal cell adhesion and adhesion to Coll-, Fn- and Lm-coated plates” value ([3]; SKOV-3, 10 nM RI-3, 2 h, BSA (basal), collagen, fibronectin, laminin, three independent experiments) is listed as “neither affected basal cell adhesion, nor cell adhesion to Coll- Fn- and Lm-coated plates”. For the same substance, the “extent of cell adhesion onto Vn with RI-3” value ([3]; SKOV-3, 10 nM RI-3, Fig. 2d (2 h, cell counting) and Fig. 2e (real time 2 h)) was “dramatically reduced the extent of cell adhesion onto Vn”.
